According to patent publication US4092420A, “Novel soft N-chloroamino alcohol derivatives exhibiting antibacterial activity” (INTERx Research Corporation, priority 1977, dated 1978):

What was measured:
[1] = Solubility in 30% methanol: 0.1 M sodium dihydrogen phosphate, pH 7.0; type: physicochemical; conditions: 0.1 m nah2po4, pH 7, organic solvent or mixture, Concentration (footnote: Solubility in 30% methanol: 0.1 M sodium dihydrogen phosphate, pH 7.0)
S. pyogenes = experiment: Minimal inhibitory concentration (MIC), Example V; type: cell-based; conditions: Streptococcus pyogenes
P. aeruginosa [2] = experiment: Minimal inhibitory concentration (MIC), Example V; type: cell-based; conditions: Pseudomonas aeruginosa
Experimental: (§1) THE ANTIBACTERIAL SCREEN - EXAMPLE V
(§2) THE ANTIBACTERIAL SCREEN - EXAMPLES W - Z (Autotiter IV)
(§3) (a) Compounds. All compounds to be screened are weighed (approx. 10 mg) on the day preceding the test date. Each compound is solubilized on the day of assay in appropriate solvent and diluted automatically in the Autotiter IV with distilled water (buffer can be employed here also).
(§4) Bacteria: Staphylococcus aureas Smith (or 209), Escherichia coli AB 1932-1, 1100/B22 and Vogel, Streptococcus pyogenes C203 Salmonella typhimurium 14028, Bacillus subtilis 6051-1, Klebsiella pneumoniae 10031, Pseudomonas aeruginosa 9027, Bordetella bronchiseptica 4617 and Staphylococcus epidermidis 12228.
(§5) (c) Inocula. Prior to utilization in the Autotiter IV, all bacteria are cultured for 18-20 hr. (37° C) in tryptose phosphate broth (TP), except, S. pyogenes C203, which is cultured in Brain Heart Infusion broth plus 10% normal horse serum. Immediately prior to testing, each culture is adjusted to an optical density of 0.10 (650 nm), employing a Bausch & Lomb Spectronic 20, and diluted subsequently into double strength medium to approximately 2 × 10^5 viable organisms per ml.
(§6) 1. An automated injector system dispenses 0.05 ml of diluent (sterile H2 O or buffer) to all cups of the autotiter trays from rows 2 through 7.
(§7) 2. The loops (for sequential dilutions of the compounds are moistened by immersion into 70% ethyl alcohol. After removal of excess alcohol by blotting, the loops are moved to the first row of cups in the autotray containing 0.10 ml of the compound to be diluted and tested (usually, this initial concentration is 500 to 1000 mcg/ml, but can be varied upward or downward). The loops are lowered and sequentially transfer the diluted solutions of the compound through row 7.
(§8) Immediately after each dilution is made, each cup is automatically inoculated with 0.05 ml of the appropriate test organism. This inoculation derives from a second injector system containing the organism in double-strength medium. The total operation consists of the automatic dilution of a single compound in each of 8 rows of the Autotiter try.
(§9) After these operations, we reverse the tray and a second compound is diluted over the other one-half of the tray and inoculated, subsequently, with 8 organisms. Thus, for each Autotiter Tray, two compounds are screened against 8 different organisms at dilutions ranging from 1:2 to 1:128.
(§10) (e) Incubation. The inoculated Autotiter trays are incubated at 37° C for 18 - 20 hr. At the end of this period, each tray is examined for the presence or absence of growth (turbidity). The lowest concentration of the compound inhibiting growth is recorded as the minimal inhibitory concentration (MIC).

S. aureus [3] = experiment: Minimal inhibitory concentration (MIC), Example V; type: cell-based; conditions: Staphylococcus aureus
Experimental: as §1, §2, §3, §4, §5, §6, §7, §8, §9, §10

E. coli [4] = experiment: Minimal inhibitory concentration (MIC), Example V; type: cell-based; conditions: Escherichia coli
Description: (§11) MINIMAL INHIBITORY CONCENTRATION OF 2-AMINO-2-METHYL-1-PROPYL
(§12) ^a Minimal inhibitory concentration expressed in parts per million
(§13) sequence inhibited the test organism at the higher concentrations.
as §1

A. niger = experiment: Minimal inhibitory concentration (MIC), Example V; type: cell-based; conditions: Aspergillus niger
Description: as §11, §12, §13, §1

T. mentagrophytes = experiment: Minimal inhibitory concentration (MIC), Example V; type: cell-based; conditions: Trichophyton mentagrophytes
Description: as §11, §12, §13, §1

K. pneumoniae [5] = experiment: Minimal inhibitory concentration (MIC), Example V; type: cell-based; conditions: Klebsiella pneumoniae
Experimental: as §11, §12, §13, §1
Klebsiella pneumoniae ATCC# 10031
as §2, §3, §4, §5, §6, §7, §8, §9, §10

C. albicans = experiment: Minimal inhibitory concentration (MIC), Example V; type: cell-based; conditions: Candida albicans
Description: MINIMAL INHIBITORY CONCENTRATION OF 2-AMINO-2-METHYL-1-PROPYL […]
as §1

S. epidermidis = experiment: Contact germicidal efficiency (sterilization time); type: cell-based, Staphylococcus epidermidis; conditions: Example Z, S. pidermidis, pH 4.6
Experimental: (§14) CONTACT GERMICIDAL EFFICIENCY OF N-CHLORAMINES AS A FUNCTION
(§15) ^a Time intervals screened 0.5, 1, 2, 3, 4 and 5 minutes.
(§16) ^a Time intervals screened 0.5, 1, 2, 3, 4, 5, 6, 7, 8, 9 and 10
(§17) ^a Time intervals screened 0.5, 1, 2, 3, 4, and 5 minutes.
(§18) ^b Time intervals screened 0.5, 1, 2, 3, 4, 5, 6, 7, 8, 9 and 10
(§19) Immediately preceding the screen, the compound is weighed and diluted with a buffer or other solvent to give the final concentration desired. The buffer or solvent chosen depends on the conditions of the screen and could be one of the following: 0.1 M NaOAc, pH 4.6; 0.1 M NaH2 PO4, pH 7.0; 0.1 M Na2 B4 O7, pH 8.8; 35% methanol in one of the aforementioned buffers; 10% Triton × 100 in buffer, etc.
(§20) The positive chlorine concentration of the test solution is then determined iodometrically.
(§21) Media used for the Screen are Nutrient Broth, BBL# 11479 and Nutrient Agar, BBL# 11472 prepared according to label directions. The broth is dispensed in 75 ml amounts of flasks for overnight cultures and in 5 ml amounts to culture tubes for subculturing during the Screen. Agar plates are prepared as usual.
(§22) Overnight cultures are prepared by inoculating from stock cultures into the 75 ml flasks of nutrient broth and incubating for 15 hours at 37° C.
(§23) The iodometrically characterized test solution is dispensed in 5 ml amounts to seven small stoppered flasks. The organisms are screened one at a time as follows:
(§24) A 0.2 ml portion of the overnight culture is inoculated into 5 ml of 0.9% NaCl for use in controls. A 0.2 ml portion of the overnight culture is inoculated into a flask containing 5 ml of the test solution, an automatic timer is simultaneously triggered and the solution mixed. At time intervals of 30 seconds, 1, 2, 3, 4, 5, 6, 7, 8, 9, and 10 minutes a loopful of the inoculated solution is subcultured into 5 ml of sterile nutrient broth and mixed by a Vortex Genie Mixer, the high dilution serving to stop the action of the compound. At the end of the ten minute screen, the entire procedure is repeated for each of the remaining six organisms. All of the subculture tubes are incubated at 37° C and checked for signs of growth by turbidity at 24 hr., 48 hr., 3, 5, and 7 days. The earliest subculture time at which no growth is present in the subculture tube is considered the endpoint and is recorded as that time, e.g., 7 minutes.
(§25) The test solution is prepared and characterized as above but is made up at twice the concentration desired. The solution is diluted 1:1 with Rehydrated Tissue Culture Dessicated Horse Serum, Difco #5357-72 and dispensed in a 5 ml amount to a small flask. The mixture is incubated at Room Temperature for 30 minutes to allow denaturation of the compound by the serum and then screened as above.
(§26) The 5 ml mixture of serum and test solution are prepared in sequence to allow as close to 30 minutes as possible before the beginning of the screen of each organism.
as §4

P. aeruginosa [6] = experiment: Contact germicidal efficiency (sterilization time); type: cell-based, Pseudomonas aeruginosa; conditions: Example Z
Experimental: as §14, §15, §16, §17, §18, §19, §20, §21, §22, §23, §24, §25, §26, §4

E. coli [7] = experiment: Contact germicidal efficiency (sterilization time); type: cell-based, Escherichia coli; conditions: Example Z, pH 4.6, in presence of horse serum, 5800 ppm (1057 PPMCl+)
Experimental: (§27) CONTACT GERMICIDAL EFFICIENCY OF
as §15, §16, §17, §18, §19, §20
as §21, with “usual. […]” for “usual.”
(§28) A 0.2 ml portion of the overnight culture is inoculated into 5 ml of 0.9% NaCl for use in controls. […] The earliest subculture time at which no growth is present in the subculture tube is considered the endpoint and is recorded as that time, e.g., 7 minutes. […]

B. bronchiseptica = experiment: Contact germicidal efficiency (sterilization time); type: cell-based, Bordetella bronchiseptica; conditions: Example Z
Experimental: as §14, §15, §16, §17, §18, §19, §20, §21, §22, §23, §24, §25, §26, §4

K. pneumoniae [8] = experiment: Contact germicidal efficiency (sterilization time); type: cell-based, Klebsiella pneumoniae; conditions: Example Z
Experimental: as §14, §15, §16, §17, §18, §19, §20, §21, §22, §23, §24, §25, §26, §4

S. aureus [9] = experiment: Contact germicidal efficiency (sterilization time); type: cell-based, Staphylococcus aureus; conditions: Example Z, pH 4.6, in presence of horse serum, 5800 ppm (1057 PPMCl+)
Experimental: as §27, §15, §16, §17, §18, §19, §20
as §21, with “usual. […]” for “usual.”
as §28

[10] = prior art; cited from earlier work
[11] = pH 4.6, absence of horse serum, IV j 79 ppm (21 PPMCl+), IV k 5800 (1057), IV l 1112 (209)
[12] = pH 4.6, in presence of horse serum, 5800 ppm (1057 PPMCl+)

| Compound | solubility [1] [µg/mL] | MIC (S. pyogenes) [µg/mL] | MIC (P. aeruginosa [2]) [µg/mL] | MIC (S. aureus [3]) [µg/mL] | MIC (E. coli [4]) [µg/mL] | MIC (A. niger) [µg/mL] | MIC (T. mentagrophytes) [µg/mL] | MIC (K. pneumoniae [5]) [µg/mL] | MIC (C. albicans) [µg/mL] | Sterilization Time (S. epidermidis; absence of horse serum, IV j 79 ppm (21 PPMCl+), IV k 5800 (1057), IV l 1112 (209)) [min] | Sterilization Time (S. epidermidis; in presence of horse serum, 5800 ppm (1057 PPMCl+)) [min] | Sterilization Time (P. aeruginosa [6]; [11]) [min] | Sterilization Time (P. aeruginosa [6]; [12]) [min] | Sterilization Time (E. coli [7]) [min] | Sterilization Time (B. bronchiseptica; [11]) [min] | Sterilization Time (B. bronchiseptica; [12]) [min] | Sterilization Time (K. pneumoniae [8]; [11]) [min] | Sterilization Time (K. pneumoniae [8]; [12]) [min] | Sterilization Time (S. aureus [9]) [min] | Deactivation by denaturing agents (e.g., horse serum) [10] |
| --- | --- | --- | --- | --- | --- | --- | --- | --- | --- | --- | --- | --- | --- | --- | --- | --- | --- | --- | --- | --- |
| CCCCCCCC(=O)OCC(C)(C)N.Cl [III e, 2-Amino-2-methyl-1-propyl octanoate hydrochloride] | 1040 | > 62.5 | > 62.5 | > 62.5 | > 62.5 | > 62.5 | > 62.5 | > 62.5 | > 62.5 |  |  |  |  |  |  |  |  |  |  |  |
| C[n+]1cccc(C(=O)OCC(C)(C)N(Cl)Cl)c1 [IV k, 2-N,N-Dichloroamino-2-methyl-1-propyl nicotinate methylsulfate] |  | > 250 | > 250 | > 250 | > 250 | 125 | 125 | > 250 | > 250 | 4 | 4 | 2 | 2 | 0.5 | 1 | 2 | 2 | 2 | 6 |  |
| NCl [NH2 Cl, chloramine] |  |  |  |  |  |  |  |  |  |  |  |  |  |  |  |  |  |  |  | readily deactivated |
| ClNCl [NHCl2] |  |  |  |  |  |  |  |  |  |  |  |  |  |  |  |  |  |  |  | readily deactivated |
